Here are results for ten compounds from patent US10562909B2, “Fused quadracyclic compounds, compositions and uses thereof” (Tabomedex Biosciences, LLC, priority 2016, dated 2020).

The target of the assay is MAPKAPK2 (Homo sapiens, UniProt P49137). The assay can be described thus: MK2 Enzymatic Assay. The class given is biochemical. Particulars: 0.5 nM MAPKAPK2, 3 μM ATP, 2 μM Ser/Thr4 peptide, 23° C., values given as concentration bins. On the procedure:
Briefly, 5 μL of 2× (4 μM) 100% phosphorylation peptide was delivered into the control wells of a 384-well assay plate. 5 μL of 2× (1 nM) MAPKAPK2 and 2× peptide (4 μM) mixture in assay buffer was dispensed to remaining columns of assay plate using Eppendorf electronic multiple channel pipette. The assay plate was incubated for 20 minutes. 5 μL of 2× ATP (6 μM) in assay buffer was dispensed to each well and then the assay plate was lightly centrifuged. The assay plate was incubated for an additional 120 minutes.
5 μL of development reagent A was dispensed to all wells using Eppendorf electronic multiple channel pipette. After incubating the development reaction for 120 min, plates were read on a Perkin Elmer Envision instrument.
Percent phosphorylation was calculated using the following formula:
[formula] Where • C100%=Average Coumarin emission signal of the 100% Phos. Control • C0%=Average Coumarin emission signal of the 0% Phos. Control • F100%=Average Fluorescein emission signal of the 100% Phos. Control • F0%=Average Flurescein emission signal of the 0% Phos. Control

What is called IC50 is the concentration that gives 50% inhibition.

Chain of MAPKAPK2 (P49137 whole entry, species assumed): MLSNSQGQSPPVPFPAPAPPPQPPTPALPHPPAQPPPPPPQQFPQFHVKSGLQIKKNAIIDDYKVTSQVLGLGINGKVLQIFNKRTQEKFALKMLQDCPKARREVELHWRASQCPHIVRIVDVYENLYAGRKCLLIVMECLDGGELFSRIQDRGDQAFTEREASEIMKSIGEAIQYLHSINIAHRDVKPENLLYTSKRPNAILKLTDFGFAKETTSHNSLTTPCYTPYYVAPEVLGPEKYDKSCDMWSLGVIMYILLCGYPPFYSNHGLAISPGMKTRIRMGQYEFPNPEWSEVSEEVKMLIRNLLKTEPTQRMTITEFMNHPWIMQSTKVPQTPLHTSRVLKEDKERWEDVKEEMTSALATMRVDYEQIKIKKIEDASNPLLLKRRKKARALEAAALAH

Turning to `CN(C)[C@@H]1CN(c2ccc3c(c2)Cn2cc(-c4ccc(C#N)cc4)cc2-c2nncn2-3)C[C@H]1O` (racemic) [Compound 57, 4-(7-(trans-3-(dimethylamino)-4-hydroxypyrrolidin-1-yl)-9H-benzo[e]pyrrolo[1,2-a][1,2,4]triazolo[3,4-c][1,4]diazepin-12-yl)benzonitrile], the concentration for half-maximal inhibition (IC50) is below 0.05 µM. In the case of `CNC[C@H]1CN(c2ccc3c(c2)Cn2cc(-c4ccc(C#N)cc4)cc2-c2nncn2-3)C[C@H]1O` (racemic) [Compound 73, 4-(7-(cis-3-hydroxy-4-((methylamino)methyl)pyrrolidin-1-yl)-9H-benzo[e]pyrrolo[1,2-a] [1,2,4]triazolo[3,4-c][1,4]diazepin-12-yl)benzonitrile], the IC50 was below 0.05 µM. Next, `CN(C)C[C@H]1CN(c2ccc3c(c2)Cn2cc(-c4ccc(C#N)cc4)cc2-c2nncn2-3)C[C@@H]1O` (racemic) [Compound 74, 4-(7-(trans-3-((dimethylamino)methyl)-4-hydroxypyrrolidin-1-yl)-9H-benzo[e]pyrrolo[1,2-a][1,2,4]triazolo[3,4-c][1,4]diazepin-12-yl)benzonitrile]: below 0.05 µM; `N#Cc1ccc(-c2cc3n(c2)Cc2cc(N4C[C@@H](F)[C@@H](N)C4)ccc2-n2cnnc2-3)cc1` (racemic) [Compound 76, 4-(7-(cis-3-amino-4-fluoropyrrolidin-1-yl)-9H-benzo[e]pyrrolo[1,2-a][1,2,4]triazolo[3,4-c][1,4]diazepin-12-yl)benzonitrile]: below 0.05 µM. With `N#Cc1ccc(-c2cc3n(c2)Cc2cc(N4CC[C@H]5NCC[C@@H]54)ccc2-n2nnnc2-3)cc1` (racemic) [Compound 232, 4-(7-(trans-hexahydropyrrolo[3,2-b]pyrrol-1(2H)-yl)-9H-benzo[e]pyrrolo[1,2-a]tetrazolo[5,1-c][1,4]diazepin-12-yl)benzonitrile], the IC50 is below 0.05 µM. As for `N#Cc1ccc(-c2cc3n(c2)Cc2cc(N4CC[C@H]5NCC[C@@H]54)ccc2-n2ncnc2-3)cc1` (racemic) [Compound 249, 4-(7-(trans-hexahydropyrrolo[3,2-b]pyrrol-1(2H)-yl)-9H-benzo[e]pyrrolo[1,2-a][1,2,4]triazolo[5,1-c][1,4]diazepin-12-yl)benzonitrile], the figure is below 0.05 µM; as for `N#Cc1ccc(-c2cc3n(c2)Cc2cc(N4CC[C@H]5NCC[C@@H]54)ncc2-n2cnnc2-3)cc1` (racemic) [Compound 314, 4-(7-(trans-hexahydropyrrolo[3,2-b]pyrrol-1(2H)-yl)-9H-pyrido[3,4-e]pyrrolo[1,2-a][1,2,4]triazolo[3,4-c][1,4]diazepin-12-yl)benzonitrile], below 0.05 µM. Turning to `CNC[C@H]1CN(c2ccc3c(c2)Cn2cc(-c4ccc(C#N)cc4)cc2-c2nncn2-3)C[C@@H]1O` (relative stereo) [Compound 72, 4-(7-(trans-3-hydroxy-4-((methylamino)methyl)pyrrolidin-1-yl)-9H-benzo[e]pyrrolo[1,2-a][1,2,4]triazolo[3,4-c][1,4]diazepin-12-yl)benzonitrile], the IC50 is below 0.05 µM. Next, `CN(C)C[C@H]1CN(c2ccc3c(c2)Cn2cc(-c4ccc(C#N)cc4)cc2-c2nncn2-3)C[C@H]1O` (relative stereo) [Compound 75, 4-(7-(Cis-3-((dimethylamino)methyl)-4-hydroxypyrrolidin-1-yl)-9H-benzo[e]pyrrolo[1,2-a] [1,2,4]triazolo[3,4-c][1,4]diazepin-12-yl)benzonitrile]: below 0.05 µM; `O[C@@H]1CN(c2ccc3c(c2)Cn2cc(-c4ccc(F)cc4)cc2-c2nccn2-3)C[C@H]1CN1CCCC1` (relative stereo) [Compound 472, (Trans)-1-(12-(4-fluorophenyl)-9H-benzo[e]imidazo[2,1-c]pyrrolo[1,2-a][1,4]diazepin-7-yl)-4-(pyrrolidin-1-ylmethyl)pyrrolidin-3-ol]: below 0.05 µM.
